Like-named read-outs stand apart in the source and are kept apart here.
Legend:
[1] = biological target: T1, viral collagen prolyl hydroxylase (vCPH) (Paramecium bursaria Chlorella virus 1, UniProt Q84406); test: MALDI-TOF MS vCPH hydroxylation assay; type: biochemical
T1 construct: made in house
Description: (§1) Supplementary Information presence of Fe(II) (50 μM), 2OG (25 μM), L-ascorbic acid (100 μM) and RPS2351-70 (25 μM) in HEPES (50 mM, pH 7.5) at 37 °C for 15 min. Reagent solutions were made as previously reported.[23] Reactions were quenched with formic acid (1 % v/v). Samples were prepared by mixing reaction mixture (1 μL) with α-cyano-4-hydrocinnamic acid (CHCA) solution (water:acetonitrile 1:1) (1 μL). Dose-response was assessed in 8-point triplicates.
(§2) Data were analysed using GraphPad Prism 5.04.

Hep‐3B human cell line = test: Cellular HIF-1α stabilization by immunoblotting; type: cell-based; settings: Hep3B, 3 hours, immunoblot
Description: Other factors including cell penetration and metabolism likely impact on cellular activity.
Supplementary Information
Figure S7: Immunoblots of Hep3B cells treated with 100 μM (A) and 20 μM (B) PHD inhibitors for 3 hours. The blots show protein levels of HIF1-α and β-actin at the 3rd hour. Protocols for cell culture and immunoblotting have been previously reported.[2] […]

KDM4A [2] = biological target: T2, KDM4A (Homo sapiens, UniProt O75164)
T2 sequence (O75164 1-359 limits assumed): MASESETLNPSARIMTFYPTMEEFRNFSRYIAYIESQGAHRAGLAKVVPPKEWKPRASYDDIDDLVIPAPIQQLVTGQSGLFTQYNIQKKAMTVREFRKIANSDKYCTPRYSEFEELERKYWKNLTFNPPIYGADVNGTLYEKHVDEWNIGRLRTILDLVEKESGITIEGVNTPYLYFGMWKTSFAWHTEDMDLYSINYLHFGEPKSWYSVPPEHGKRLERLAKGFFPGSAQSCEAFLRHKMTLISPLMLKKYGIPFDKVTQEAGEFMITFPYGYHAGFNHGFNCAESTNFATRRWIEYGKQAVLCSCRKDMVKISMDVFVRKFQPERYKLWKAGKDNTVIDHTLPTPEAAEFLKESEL
Description: RapidFire-MS KDM4A hydroxylation assays
(§3) (RF-MS). […] The KDM4A RF-MS assay measures
(§4) depletion of a histone H3-K9 (Me3) peptide substrate and appearance of the dimethyl peptide
(§5) oxoglutarate (2OG, code K3752) were from Sigma Aldrich (Poole, Dorset). The H3K9Me3 peptide
(§6) each day to a concentration of 50 mM in deionized water, ferrous ammonium sulphate was prepared
(§7) freshly each day by dissolving to 400 mM in 10 mM HCl and then dilution to 1 mM in deionized
(§8) water, 2OG was prepared freshly each day by dissolving in 10 mM in deionized water. The
(§9) KDM4A RF-MS assay was performed in 384-well plate format in assay buffer (50 mM MES pH
(§10) 7.0). All reagent dispenses were performed using a multidrop reagent dispenser (Thermo). Dilutions
(§11) of compounds were prepared using an ECHO 550 acoustic dispenser (Labcyte) and dry dispensed
(§12) (250 nL) in duplicate into 384-well polypropylene plates (Greiner Bio-One); DMSO (250 nL) was
(§13) dispensed into columns 12 and 2, 4-pyridinedicarboxylic acid (a known JmjC KDM inhibitor)[21]
(§14) (250 nL of 10 mM) was dispensed into column 24 as a no enzyme control. KDM4A (300 nM) was
(§15) minutes. Reaction was initiated by dispensing of 25 µL of assay buffer containing substrate and co-
(§16) factors (200 µM LAA, 20 µM FAS, 20 µM 2OG and 20 µM H3K9Me3 peptide); reactions were
(§17) allowed to progress for 50 minutes, then stopped by addition of 5 µL of 10% (v/v) aqueous formic
(§18) acid. The final assay concentration of DMSO was 0.5% (v/v). Assay plates were transferred to a
(§19) RapidFire RF365 high throughput sampling robot and samples aspirated under vacuum onto a C4
(§20) SPE cartridge. After an aqueous wash step (0.1% v/v formic acid in water) to remove non-volatile
(§21) buffer components from the C4 SPE, peptide was eluted from the C4 SPE in an organic wash step
(§22) cycle of sample aspiration, loading, wash and elution takes approximately 12 seconds. Peptide
(§23) charge states were monitored in the positive ESI mode with a drying gas temperature of 280°C, a
(§24) drying gas flow rate of 13 L/minute, nebulizer gas pressure of 40 PSI, sheath gas temperature of
(§25) 350°C, sheath gas flow rate of 12 L/min and a nozzle voltage of 1000V. Ion chromatogram data
(§26) was extracted for the substrate and the product methyl marks and peak area data for extracted ion
(§27) chromatograms were integrated using RapidFire Integrator software (Agilent). % conversion to the
(§28) dimethyl peptide product was calculated using the equation:
(§29) % conversion = 100 x dimethyl / (dimethyl + trimethyl peptide)
(§30) IC50 data were determined from non -linear regression plots using GraphPad prism 6.0

FIH = FIH (Homo sapiens, UniProt Q9NWT6); test: biochemical
Description: chromatogram data were extracted for the +2 charge state and peak area data integrated using
RapidFire Integrator software (Agilent). The % conversion of the CODD peptide substrate to the +16 hydroxylated peptide was calculated using the equation:
determined from non-linear regression plots using GraphPad prism 6.0.
was normalized to no enzyme control.2
RapidFire-MS FIH hydroxylation assays
in the assay buffer (50 mM Tris-HCl pH 7.8, 50 mM NaCl) was pre - incubated for 15 minutes in
the presence of the inhibitors and the enzyme reaction initiated by addition of 20 μL substrate (200
μM L-ascorbic acid, 20 μM Fe(II) sulfate, 10 μM synthetic ankyrin peptide and 20 μM 2OG).[16]
After 15 minutes the reaction was quenched by addition of 4 μL 10% formic acid and the reaction
transferred to a RapidFire RF360 high throughput sampling robot. Samples were aspirated under
vacuum onto a C4 SPE cartridge. After an aqueous washing step (0.1% (v/v) aqueous formic acid),
to remove non-volatile buffer components from the C4 SPE cartridge , peptide was eluted in an
Ion chromatogram data was extracted for the non -hydroxylated
peptide substrate and the hydroxylated peptide product; the peak area data for extracted ion
chromatograms were integrated using RapidFire Integrator software. % conversion of substrate to
product was calculated in Microsoft excel and IC50 curves generated using Graph pad Prism.

PHD2_181‐426 [3] = biological target: T3, PHD2_181‐426 (Homo sapiens, UniProt Q9GZT9); test: biochemical
PHD2_181‐426 [4] = biological target: T3, PHD2_181‐426; test: biochemical; remark: listed apart in the source
KDM4A [5] = biological target: T2, KDM4A; test: biochemical
Description: RapidFire-MS KDM4A hydroxylation assays
as §3, §4, §5, §6, §7, §8, §9, §10, §11, §12, §13, §14, §15, §16, §17, §18, §19, §20, §21, §22, §23, §24, §25, §26, §27, §28, §29, §30

OGFOD1 = biological target: T4, OGFOD1 (Homo sapiens, UniProt Q8N543); test: MALDI-TOF MS OGFOD1 hydroxylation assay; type: biochemical; settings: at 10 μM inhibitor
T4 construct: made in house
T4 sequence (Q8N543 1-542): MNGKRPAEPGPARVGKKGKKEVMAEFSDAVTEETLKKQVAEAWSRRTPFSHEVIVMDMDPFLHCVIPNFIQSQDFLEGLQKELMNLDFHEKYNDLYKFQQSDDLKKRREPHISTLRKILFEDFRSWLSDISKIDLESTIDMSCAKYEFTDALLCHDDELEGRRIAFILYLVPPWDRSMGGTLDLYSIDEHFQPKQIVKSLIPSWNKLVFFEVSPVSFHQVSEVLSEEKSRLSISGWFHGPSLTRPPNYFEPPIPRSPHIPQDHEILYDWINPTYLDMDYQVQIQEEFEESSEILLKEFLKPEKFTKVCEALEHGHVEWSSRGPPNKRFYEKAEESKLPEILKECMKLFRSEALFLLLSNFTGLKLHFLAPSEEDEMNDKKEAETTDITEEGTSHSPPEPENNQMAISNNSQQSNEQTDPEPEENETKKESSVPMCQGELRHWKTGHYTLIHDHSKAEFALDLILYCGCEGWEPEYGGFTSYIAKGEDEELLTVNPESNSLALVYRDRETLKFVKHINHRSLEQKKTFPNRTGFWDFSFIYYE
Description: Supplementary Information […]
acid. […] Assay plates were transferred to a
MALDI-TOF MS OGFOD1 Hydroxylation Assays […]
metal affinity chromatography.
The optimized hydroxylation […]
as §1, with “presence” for “Supplementary Information presence”
as §2

Sequence of FIH (Q9NWT6 whole entry): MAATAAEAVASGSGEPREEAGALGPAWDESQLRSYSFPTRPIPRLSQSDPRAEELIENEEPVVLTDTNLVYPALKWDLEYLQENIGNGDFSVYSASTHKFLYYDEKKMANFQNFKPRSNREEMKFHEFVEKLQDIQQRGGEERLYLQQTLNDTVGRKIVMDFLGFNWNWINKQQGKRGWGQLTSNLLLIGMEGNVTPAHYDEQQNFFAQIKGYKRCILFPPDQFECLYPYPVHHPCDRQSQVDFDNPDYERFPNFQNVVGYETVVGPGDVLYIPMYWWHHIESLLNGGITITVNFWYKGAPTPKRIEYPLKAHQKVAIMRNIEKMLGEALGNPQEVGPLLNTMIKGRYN
T1 sequence (Q84406 entry or part of it): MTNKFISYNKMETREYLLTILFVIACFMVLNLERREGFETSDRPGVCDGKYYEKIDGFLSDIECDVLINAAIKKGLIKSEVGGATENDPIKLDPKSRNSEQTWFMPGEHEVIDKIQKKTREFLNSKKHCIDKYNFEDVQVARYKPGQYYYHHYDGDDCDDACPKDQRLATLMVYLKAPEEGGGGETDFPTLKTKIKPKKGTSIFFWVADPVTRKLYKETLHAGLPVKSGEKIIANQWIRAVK
T3 sequence (Q9GZT9 181-426): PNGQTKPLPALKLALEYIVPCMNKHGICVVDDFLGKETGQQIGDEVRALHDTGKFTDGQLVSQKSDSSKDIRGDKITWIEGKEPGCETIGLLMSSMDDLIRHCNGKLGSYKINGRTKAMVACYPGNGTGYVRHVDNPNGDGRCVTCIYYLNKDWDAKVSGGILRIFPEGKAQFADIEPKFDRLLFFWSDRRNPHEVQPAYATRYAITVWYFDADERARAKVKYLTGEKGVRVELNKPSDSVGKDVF

Cc1cccnc1CN1CCC2(CC1)C(=O)N(c1ccc(-c3ccccc3)cc1)C(=O)N2c1ncccn1 [compound 18, reference compound]
IC50 [1]: > 100 µM | cellular HIF‐1α stabilization (Hep‐3B human cell line; 20 μM): manifested HIF‐1α stabilization | cellular HIF‐1α stabilization (Hep‐3B human cell line; 100 μM): strongest activity | IC50 (KDM4A [2]): 4.65 µM | IC50 (FIH): > 25 µM

CCOC(=O)c1cnc(-n2cccn2)nc1O [compound 6, Ethyl 4-hydroxy-2-(1H-pyrazol-1-yl) pyrimidine-5-carboxylate]
vCPH inhibition (in words) [1]: inactive | IC50 (PHD2_181‐426 [3]): > 25 µM | IC50 (PHD2_181‐426 [4]): > 25 µM | IC50 (FIH): > 25 µM | IC50 (KDM4A [5]): > 25 µM

O=C(Nc1ccc(-c2ccccc2)cc1)c1cnc(-n2cccn2)nc1O [compound 15, N-([1,1’-Biphenyl]-4-yl)-4-hydroxy-2-(1H-pyrazol-1-yl)pyrimidine-5-carboxamide]
IC50 [1]: 28.2 ± 1 µM | cellular HIF‐1α stabilization (Hep‐3B human cell line; 20 μM): manifested HIF‐1α stabilization | cellular HIF‐1α stabilization (Hep‐3B human cell line; 100 μM): strongest activity | IC50 (KDM4A [5]): > 25 µM

O=C(NCc1ccccc1)c1cnc(-n2cccn2)nc1O [compound 10, N-Benzyl-4-Hydroxy-2-(1H-pyrazol-1-yl)pyrimidine-5-carboxamide]
IC50 (KDM4A [5]): > 25 µM

O=C(NCC1CCCCC1)c1cnc(-n2cccn2)nc1O [compound 12, N-(Cyclohexylmethyl)-4-hydroxy-2-(1H-pyrazol-1-yl)pyrimidine-5-carboxamide]
IC50 (PHD2_181‐426 [3]): > 25 µM | IC50 (PHD2_181‐426 [4]): > 25 µM | IC50 (FIH): > 25 µM | IC50 (KDM4A [5]): > 25 µM

O=C(NCc1ccc2c(c1)OCO2)c1cnc(-n2cccn2)nc1O [compound 14, N-(Benzo[d][1,3]dioxol-5-ylmethyl)-4-hydroxy-2-(1H-pyrazol-1-yl)pyrimidine-5-carboxamide]
IC50 (PHD2_181‐426 [3]): 0.261 ± 0.037 µM | IC50 (PHD2_181‐426 [4]): 0.274 ± 0.034 µM | IC50 (KDM4A [5]): 23 µM

O=C(NCc1cccc(C(F)(F)F)c1)c1cnc(-n2cccn2)nc1O [compound 13, 4-Hydroxy-2-(1H-pyrazol-1-yl)-N-(3-(trifluoromethyl)benzyl)pyrimidine-5-carboxamide]
OGFOD1 activity relative to control (OGFOD1): 75±1% | IC50 (FIH): > 25 µM | IC50 (KDM4A [5]): > 25 µM

O=C(N[C@@H](CO)c1ccccc1)c1cnc(-n2cccn2)nc1O [compound 16]
IC50 [1]: 1.1 ± 0.1 µM | OGFOD1 activity relative to control (OGFOD1): 41±5% | cellular HIF‐1α stabilization (Hep‐3B human cell line; 100 μM): inactive | IC50 (KDM4A [5]): > 25 µM

O=C(NCc1ccccn1)c1cnc(-n2cccn2)nc1O [compound 11, 4-Hydroxy-2-(1H-pyrazol-1-yl)-N-(pyridin-2-ylmethyl)pyrimidine-5-carboxamide]
IC50 (KDM4A [5]): 17 µM

O=C(NCc1ccc(Oc2ccccc2)cc1)c1cnc(-n2cccn2)nc1O [compound 8, 4-Hydroxy-N-(4-phenoxybenzyl)-2-(1H-pyrazol-1-yl)pyrimidine-5-carboxamide]
IC50 [1]: 2 ± 0.1 µM | OGFOD1 activity relative to control (OGFOD1): 83±13% | cellular HIF‐1α stabilization (Hep‐3B human cell line; 100 μM): strongest activity | IC50 (KDM4A [5]): > 25 µM

O=C(N[C@H](CO)c1ccccc1)c1cnc(-n2cccn2)nc1O [compound 17]
OGFOD1 activity relative to control (OGFOD1): 70±3% | cellular HIF‐1α stabilization (Hep‐3B human cell line; 100 μM): modest HIF‐1α stabilization | IC50 (KDM4A [5]): 21 µM

Cc1nc(C(=O)NCC(=O)O)c(O)c2ccc(Oc3ccccc3)cc12 [compound 1, Roxadustat, reference compound]
OGFOD1 activity relative to control (OGFOD1): 100%

O=C(NCc1ccc(-c2ccccc2)cc1)c1cnc(-n2cccn2)nc1O [compound 9, N-([1,1’-Biphenyl]-4-ylmethyl)-4-hydroxy-2-(1H-pyrazol-1-yl)pyrimidine-5-carboxamide]
IC50 (FIH): > 25 µM | IC50 (KDM4A [5]): 20 µM
